Measured values from patent publication US20250230193A1, “CYCLIC COMPOUND HAVING SELECTIVE KRAS INHIBITORY EFFECT ON HRAS AND NRAS” (CHUGAI SEIYAKU KABUSHIKI KAISHA, priority 2022, published 2025).
*1 amine or outer side, *2 acyl side, *3 side chain or, on linkers, in order; H or OH if unused. Where a SMILES comes first, the peptide text is derived from it. Bridges are numbered along the chain shown (N, C = ends). [ ]: non-standard residue; d: D form. The star is where a group is joined. hPhe(3,5-F2-4-CF3) = N[C@@H](CCc1cc(F)c(C(F)(F)F)c(F)c1)C(=O)O; hPhe(3-Cl-4-CF3) = N[C@@H](CCc1ccc(C(F)(F)F)c(Cl)c1)C(=O)O; NPrPhe(4-CF3) = CCCN[C@@H](Cc1ccc(C(F)(F)F)cc1)C(=O)O; NMeGly(cPent) = CN[C@H](C(=O)O)C1CCCC1; Pro(4,4-F2) = O=C(O)[C@@H]1CC(F)(F)CN1; X13 = CCC[C@](C)(N[*:1])C(=O)[*:2]; NMeD = CN[C@@H](CC(=O)O)C(=O)O; NMeL = CN[C@@H](CC(C)C)C(=O)O; Morpholide = C1CN(*)CCO1; Aze = O=C(O)[C@@H]1CCN1; Ac4c = NC1(C(=O)O)CCC1; NEtG = CCNCC(=O)O; Sar = CNCC(=O)O

What was measured:
[1] = target: GDP-bound HRAS wild-type protein (Homo sapiens, UniProt P01112); experiment: Binding to HRAS by surface plasmon resonance (SPR), Single Cycle Kinetics; details: for HRAS/KRAS (ratio of KD value with respect to HRAS to KD value with respect to KRAS): GDP-bound HRAS wild-type vs GDP-bound KRAS wild-type
[2] = target: GDP-bound NRAS wild-type protein (Homo sapiens, UniProt P01111); experiment: Binding to NRAS by surface plasmon resonance (SPR), Single Cycle Kinetics; details: for NRAS/KRAS (ratio of KD value with respect to NRAS to KD value with respect to KRAS): GDP-bound NRAS wild-type vs GDP-bound KRAS wild-type
[3] = KD ratio HRAS/KRAS, class symbols
[4] = KD ratio NRAS/KRAS, class symbols

Chain of GDP-bound NRAS wild-type protein (P01111 whole entry): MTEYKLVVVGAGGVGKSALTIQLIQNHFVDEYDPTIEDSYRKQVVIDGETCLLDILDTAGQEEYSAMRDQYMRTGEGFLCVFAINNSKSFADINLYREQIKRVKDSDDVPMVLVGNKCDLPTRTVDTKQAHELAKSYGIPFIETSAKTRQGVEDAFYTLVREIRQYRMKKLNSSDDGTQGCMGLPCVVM
Chain of GDP-bound HRAS wild-type protein (P01112 whole entry): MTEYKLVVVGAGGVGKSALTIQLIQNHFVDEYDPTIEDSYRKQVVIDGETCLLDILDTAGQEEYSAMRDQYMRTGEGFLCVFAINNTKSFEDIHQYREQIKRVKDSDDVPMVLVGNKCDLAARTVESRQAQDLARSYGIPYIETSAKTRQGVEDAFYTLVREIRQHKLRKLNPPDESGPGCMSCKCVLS

CCCN1C(=O)CN(C)C(=O)CN(CC)C(=O)[C@H]([C@@H](C)CC)NC(=O)[C@H](CC(C)C)N(C)C(=O)C[C@@H](C(=O)N2CCOCC2)N(C)C(=O)[C@H](C2CCCC2)N(C)C(=O)C2(CCC2)NC(=O)[C@@H]2CC(F)(F)CN2C(=O)[C@H](CCc2ccc(C(F)(F)F)c(Cl)c2)NC(=O)CN(C)C(=O)[C@@H]1Cc1ccc(C(F)(F)F)cc1 [PP0400] ([NMeL]I[NEtG][Sar][NPrPhe(4-CF3)][Sar][hPhe(3-Cl-4-CF3)][Pro(4,4-F2)][Ac4c][NMeGly(cPent)][NMeD]-Morpholide; lactam N-11)
HRAS/KRAS (ratio of KD for GDP-bound HRAS wild-type to KD for KRAS) ([1]; KD ratio HRAS/KRAS, SPR): B (a compound having 3 or more and less than 10 is denoted as B) | NRAS/KRAS (ratio of KD for GDP-bound NRAS wild-type to KD for KRAS) ([2]; KD ratio NRAS/KRAS, SPR): B (a compound having 3 or more and less than 10 is denoted as B)

CC[C@H](C)[C@@H]1NC(=O)[C@H](COC)N(C)C(=O)C[C@@H](C(=O)N2CCOCC2)N(C)C(=O)[C@H](C2CCCC2)N(C)C(=O)C2(CCCC2)NC(=O)[C@@H]2CCCN2C(=O)[C@H](CCc2cc(F)c(C(F)(F)F)c(F)c2)NC(=O)CN(C)C(=O)[C@H](Cc2ccc(C(F)(F)F)cc2)N2CCCCC[C@@H](C2=O)N(C)C(=O)CN(C)C1=O [PP0845]
HRAS/KRAS (ratio of KD value with respect to HRAS to KD value with respect to KRAS) ([1]; KD ratio, SPR): B (a compound having 3 or more and less than 10 is denoted as B) | NRAS/KRAS (ratio of KD value with respect to NRAS to KD value with respect to KRAS) ([2]; KD ratio, SPR): B (a compound having 3 or more and less than 10 is denoted as B)

CCO[C@@H]1C[C@H]2C(=O)NC3(CC(C)(C)C3)C(=O)N(C)[C@@H](C(CC)CC)C(=O)N(C)[C@H](C(=O)N(C)C)CC(=O)N(C)[C@@H](COC)C(=O)N[C@@H]([C@@H](C)CC)C(=O)N(C)CC(=O)N(C)[C@H]3C/C=C\CCN(C3=O)[C@@H](Cc3ccc(C(F)(F)F)cc3)C(=O)N(C)CC(=O)N[C@@H](CCc3ccc(C(F)(F)F)c(OC)c3)C(=O)N2C1 [PP2157]
HRAS/KRAS (ratio of KD value with respect to HRAS to KD value with respect to KRAS) ([1]; SPR): A (a compound having 10 or more and less than 20 is denoted as A) | NRAS/KRAS (ratio of KD value with respect to NRAS to KD value with respect to KRAS) ([2]; SPR): A (a compound having 10 or more and less than 20 is denoted as A)

CCO[C@@H]1C[C@H]2C(=O)NC3(CC(C)(C)C3)C(=O)N(C)[C@@H](C(CC)CC)C(=O)N(C)[C@H](C(=O)N(C)C)CC(=O)N(C)[C@@H](CC(C)C)C(=O)N[C@@H]([C@@H](C)CC)C(=O)N(C)CC(=O)N(C)[C@H]3C/C=C\CCN(C3=O)[C@@H](Cc3ccc(C)cc3)C(=O)N(C)CC(=O)N[C@@H](CCc3ccc(Cl)c(Cl)c3)C(=O)N2C1 [PP2185]
HRAS/KRAS (ratio of KD value with respect to HRAS to KD value with respect to KRAS) ([1]; SPR): A (a compound having 10 or more and less than 20 is denoted as A) | NRAS/KRAS (ratio of KD value with respect to NRAS to KD value with respect to KRAS) ([2]; SPR): AA (a compound having 20 or more is denoted as AA)

CCCN1C(=O)CN(C)C(=O)[C@@H]2CCN2C(=O)[C@H]([C@@H](C)CC)NC(=O)[C@H](CC(C)C)N(C)C(=O)C[C@@H](C(=O)N2CCOCC2)N(C)C(=O)[C@H](C2CCCC2)N(C)C(=O)[C@](C)(CCC)NC(=O)[C@@H]2CCCN2C(=O)[C@H](CCc2cc(F)c(C(F)(F)F)c(F)c2)NC(=O)CN(C)C(=O)[C@@H]1Cc1ccc(C(F)(F)F)cc1 [PP0775] ([NMeL]I[Aze][Sar][NPrPhe(4-CF3)][Sar][hPhe(3,5-F2-4-CF3)]P[X13][NMeGly(cPent)][NMeD]-Morpholide; lactam N-11)
HRAS/KRAS (ratio of KD value with respect to GDP-bound HRAS wild-type protein to KD value with respect to KRAS) ([1]; KD ratio HRAS/KRAS, SPR): B (a compound having 3 or more and less than 10 is denoted as B) | NRAS/KRAS (ratio of KD value with respect to GDP-bound NRAS wild-type protein to KD value with respect to KRAS) ([2]; KD ratio NRAS/KRAS, SPR): B (a compound having 3 or more and less than 10 is denoted as B)

CCC[C@H]1C(=O)N[C@@H]([C@@H](C)CC)C(=O)N(C)CC(=O)N(C)[C@H]2C/C=C\CCN(C2=O)[C@@H](Cc2ccc(C(F)(F)F)cc2)C(=O)N(C)CC(=O)N[C@@H](CCc2ccc(CC)c(Cl)c2)C(=O)N2C[C@H](OCC)C[C@H]2C(=O)NC2(CC(C)(C)C2)C(=O)N(C)[C@@H](C2CCCC2)C(=O)N(C)[C@H](C(=O)N(C)C)CC(=O)N1C [PP2848]
HRAS/KRAS (ratio of KD value with respect to GDP-bound HRAS wild-type protein to KD value with respect to KRAS) [1, 3]: A (a compound having 10 or more and less than 20 is denoted as A) | NRAS/KRAS (ratio of KD value with respect to GDP-bound NRAS wild-type protein to KD value with respect to KRAS) [2, 4]: A (a compound having 10 or more and less than 20 is denoted as A)

CC[C@H](C)[C@@H]1NC(=O)[C@H](COC)N(C)C(=O)C[C@@H](C(=O)N(C)C)N(C)C(=O)[C@H](C2CCCC2)N(C)C(=O)C2(CC(C)(C)C2)NC(=O)[C@@H]2C[C@@H](OC3CCCC3)CN2C(=O)[C@H](CCc2ccc(Cl)c(Cl)c2)NC(=O)CN(C)C(=O)[C@H](Cc2ccc(C)cc2)N2CC/C=C\C[C@@H](C2=O)N(C)C(=O)CN(C2CC2)C1=O [PP2628]
HRAS/KRAS (ratio of KD value with respect to GDP-bound HRAS wild-type protein to KD value with respect to KRAS) [1, 3]: A (a compound having 10 or more and less than 20 is denoted as A) | NRAS/KRAS (ratio of KD value with respect to GDP-bound NRAS wild-type protein to KD value with respect to KRAS) [2, 4]: A (a compound having 10 or more and less than 20 is denoted as A)
